In paper PMC7515829, “HKDC1 C-terminal based peptides inhibit extranodal natural killer/T-cell lymphoma by modulation of mitochondrial function and EBV suppression” (Leukemia, 2020):

Tests used:
HANK1 = test: Cell death IC50 by PI staining/FACS; assay type: cell-based; settings: Human natural killer/T-cell lymphoma/EBV(+), 0.1–15 µM, 6 h (suspension) or 12 h (adherent cells), mean ± SEM, read-out: Peptide IC50 (µM), cell death, HANK1
Experimental: (§1) Measurement of apoptosis and cell death. Apoptosis was evaluated by TUNEL assay using the In Situ Cell Death Detection Kit™ (Roche). Cells were fixed in 4% paraformaldehyde and labeled with TUNEL reagents. Stained cells were photographed by a fluorescence microscope (11). For cell death analysis, the propidium iodide (PI) staining was performed by addition of 6.25 µg/ml of PI to the cells, and cell death was immediately evaluated by FACS analysis (3).

HL-60 = test: Cell death IC50 by PI staining/FACS; assay type: cell-based; settings: Human acute promyelocytic leukemia/EBV(−), 0.1–15 µM, 6 h (suspension) or 12 h (adherent cells), mean ± SEM, read-out: Peptide IC50 (µM), cell death, HL-60
Experimental: as §1

HMECs = test: Cell death IC50 by PI staining/FACS; assay type: cell-based; settings: Human mammary epithelial cells/EBV(−), 0.1–15 µM, 6 h (suspension) or 12 h (adherent cells), mean ± SEM, read-out: Peptide IC50 (µM), cell death, HMECs
Experimental: as §1

Healthy MNCs = test: Cell death IC50 by PI staining/FACS; assay type: cell-based; settings: Healthy human mononuclear cells/EBV(−), 0.1–15 µM, 6 h (suspension) or 12 h (adherent cells), mean ± SEM, read-out: Peptide IC50 (µM), cell death, Healthy MNCs
Experimental: as §1

Hela = test: Cell death IC50 by PI staining/FACS; assay type: cell-based; settings: Human cervix adenocarcinoma/EBV(−), 0.1–15 µM, 6 h (suspension) or 12 h (adherent cells), mean ± SEM, read-out: Peptide IC50 (µM), cell death, Hela
Experimental: as §1

HepG2 = test: Cell death IC50 by PI staining/FACS; assay type: cell-based; settings: Human hepatocellular carcinoma/EBV(−), 0.1–15 µM, 6 h (suspension) or 12 h (adherent cells), mean ± SEM, read-out: Peptide IC50 (µM), cell death, HepG2
Experimental: as §1

Kasumi-1 = test: Cell death IC50 by PI staining/FACS; assay type: cell-based; settings: Human acute myeloblastic leukemia/EBV(−), 0.1–15 µM, 6 h (suspension) or 12 h (adherent cells), mean ± SEM, read-out: Peptide IC50 (µM), cell death, Kasumi-1
Experimental: as §1

MCF7 = test: Cell death IC50 by PI staining/FACS; assay type: cell-based; settings: Human breast adenocarcinoma/EBV(−), 0.1–15 µM, 6 h (suspension) or 12 h (adherent cells), mean ± SEM, read-out: Peptide IC50 (µM), cell death, MCF7
Experimental: as §1

MDA-MB-231 = test: Cell death IC50 by PI staining/FACS; assay type: cell-based; settings: Human breast adenocarcinoma/EBV(−), 0.1–15 µM, 6 h (suspension) or 12 h (adherent cells), mean ± SEM, read-out: Peptide IC50 (µM), cell death, MDA-MB-231
Experimental: as §1

MM.1R = test: Cell death IC50 by PI staining/FACS; assay type: cell-based; settings: Human B lymphoblast/EBV(−), 0.1–15 µM, 6 h (suspension) or 12 h (adherent cells), mean ± SEM, read-out: Peptide IC50 (µM), cell death, MM.1R
Experimental: as §1

NK92 = test: Cell death IC50 by PI staining/FACS; assay type: cell-based; settings: Human natural killer non-Hodgkin’s lymphoma/EBV(−), 0.1–15 µM, 6 h (suspension) or 12 h (adherent cells), mean ± SEM, read-out: Peptide IC50 (µM), cell death, NK92
Experimental: as §1

RPMI 8226 = test: Cell death IC50 by PI staining/FACS; assay type: cell-based; settings: Human B lymphoblast/EBV(−), 0.1–15 µM, 6 h (suspension) or 12 h (adherent cells), mean ± SEM, read-out: Peptide IC50 (µM), cell death, RPMI 8226
Experimental: as §1

SNT8 = test: Cell death IC50 by PI staining/FACS; assay type: cell-based; settings: Human natural killer/T-cell lymphoma/EBV(+), 0.1–15 µM, 6 h (suspension) or 12 h (adherent cells), mean ± SEM, read-out: Peptide IC50 (µM), cell death, SNT8
Experimental: as §1

SW480 = test: Cell death IC50 by PI staining/FACS; assay type: cell-based; settings: Human colorectal adenocarcinoma/EBV(−), 0.1–15 µM, 6 h (suspension) or 12 h (adherent cells), mean ± SEM, read-out: Peptide IC50 (µM), cell death, SW480
Experimental: as §1

SW620 = test: Cell death IC50 by PI staining/FACS; assay type: cell-based; settings: Human colorectal adenocarcinoma/EBV(−), 0.1–15 µM, 6 h (suspension) or 12 h (adherent cells), mean ± SEM, read-out: Peptide IC50 (µM), cell death, SW620
Experimental: as §1

THP1 = test: Cell death IC50 by PI staining/FACS; assay type: cell-based; settings: Human monocytic leukemia/EBV(−), 0.1–15 µM, 6 h (suspension) or 12 h (adherent cells), mean ± SEM, read-out: Peptide IC50 (µM), cell death, THP1
Experimental: as §1

U266B1 = test: Cell death IC50 by PI staining/FACS; assay type: cell-based; settings: Human B lymphoblast/EBV(−), 0.1–15 µM, 6 h (suspension) or 12 h (adherent cells), mean ± SEM, read-out: Peptide IC50 (µM), cell death, U266B1
Experimental: as §1

SNK6 cells = test: Cell migration assay; assay type: cell-based, human; settings: 0.5 µM peptide, 6 h, vs CTL, n = 5 (Fig. 5b)
Experimental: Migration and invasion assays. Cell migration and invasion assays were performed in 24-well chemotaxis plates with an 8μm polycarbonate filter membrane. The plates were coated with 20μg Matrigel for invasion assays and uncoated for migration assays. Invasion and migration were expressed as the number of migrated cells bound per microscopic field and averaged from at least four fields per assay in at least 4 experiments (18, 19).

With HAIYPRH-ITAVAKRLQQAQKEN [Tf-D-HKC15] the IC50 (HANK1) was 1.4 ± 0.6 µM, the IC50 (HL-60) was 2.2 ± 0.6 µM and the IC50 (HMECs) was > 15 µM. For the same substance, the IC50 (Healthy MNCs) was > 15 µM, the IC50 (Hela) was 9.8 ± 0.6 µM and the IC50 (HepG2) was > 15 µM. The IC50 (Kasumi-1) was 2.7 ± 0.9 µM, the IC50 (MCF7) was > 15 µM and the IC50 (MDA-MB-231) was 14.4 ± 0.8 µM. The IC50 (MM.1R) was 2.3 ± 0.7 µM, the IC50 (NK92) was 1.5 ± 0.6 µM and the IC50 (RPMI 8226) was 1.9 ± 0.7 µM. The IC50 (SNT8) was 1.1 ± 0.4 µM, the IC50 (SW480) was 8.9 ± 0.9 µM and the IC50 (SW620) was 12.5 ± 0.8 µM. The IC50 (THP1) was 2.3 ± 0.5 µM, the IC50 (U266B1) was 2.2 ± 0.6 µM and the cell migration (SNK6 cells) was 66%.
With HAIYPRH-LQQAQKEN [Tf-D-HKC8] the IC50 (HANK1) was 0.7 ± 0.4 µM, the IC50 (HL-60) was 1.7 ± 0.4 µM and the IC50 (HMECs) was > 15 µM. The IC50 (Healthy MNCs) was > 15 µM, the IC50 (Hela) was 6.8 ± 0.9 µM and the IC50 (HepG2) was > 15 µM. For the same substance, the IC50 (Kasumi-1) was 1.8 ± 0.6 µM, the IC50 (MCF7) was > 15 µM and the IC50 (MDA-MB-231) was 11.6 ± 1.1 µM. It also gave an IC50 (MM.1R) of 1.6 ± 0.4 µM, an IC50 (NK92) of 0.9 ± 0.4 µM and an IC50 (RPMI 8226) of 1.3 ± 0.6 µM. The IC50 (SNT8) was 0.6 ± 0.3 µM, the IC50 (SW480) was 6.7 ± 0.8 µM and the IC50 (SW620) was 10.2 ± 0.7 µM. For the same substance, the IC50 (THP1) was 1.8 ± 0.6 µM, the IC50 (U266B1) was 1.4 ± 0.3 µM and the cell migration (SNK6 cells) was 23%.
